The values below are quoted from earlier work in the CATMoS acute toxicity set (Mansouri et al. 2021).

Where “and” joins values, the source holds several entries; their conditions need not be identical. Equal entries are not always repeated.

The nature of this data set: rat acute oral toxicity. Conditions: in vivo.
Regarding `CC1(C)C(C(=O)OC(C#N)c2cccc(Oc3ccccc3)c2)C1(C)C` (centres undefined), the LD50 is 18 mg/kg.
In the case of `CCc1ccc(C(=O)c2ccccc2)c(C(=O)O)c1`, the LD50 is 4450 mg/kg.
For `CN1C(=O)CN=C(c2ccccc2F)c2c1ccc(NC(=O)N1CCOCC1)c2Cl`, the LD50 is 1250 mg/kg.
With `CCOC(=O)C(C(=O)Cc1c(C)n(C(=O)c2ccc(Cl)cc2)c2ccc(OC)cc12)C(=O)OCC`, the LD50 was 520 mg/kg.
Take `O=c1ccn(C2OC(COP(=O)(O)O)C(O)C2O)c(=O)[nH]1` (centres undefined): the LD50 was 12000 mg/kg.
Take `CC1=C2C(=O)O[C@@H](c3ccoc3)[C@]2(C)CCC1`: the LD50 is 274 mg/kg.
`Cc1cc(S(=O)(=O)O)c2c(C)ccc(C(C)C)cc1-2`: the LD50 is 6380 mg/kg.
As to `FC(F)(F)c1nc2c(I)cc(Cl)cc2[nH]1`, the LD50 was 24 mg/kg.
As to `CCCCCC1CNC(C(=O)NC(C(C)Cl)C2OC(SC)C(O)C(O)C2O)C1` (centres undefined), the LD50 was 1100 mg/kg.
As to `c1ccc2c(c1)ncn2P(n1cnc2ccccc21)n1cnc2ccccc21`, the LD50 was 2900 mg/kg.
Consider `CC(c1ccccc1)N(C)N=O` (centres undefined), for which the LD50 was 600 mg/kg.
`CCOc1ccccc1N1CCN(CCC=Cc2ccc3c(c2)CCC(=O)N3)CC1`: the LD50 was 500 mg/kg.
In the case of `CCOC(=O)C1(c2ccccc2)CCN(CCOCC2CCCO2)CC1` (centres undefined), the LD50 was 135 mg/kg.
Consider `FC(F)(F)c1nc2c(Cl)c(Br)c(Br)c(Cl)c2[nH]1`, for which the LD50 was 3.43 mg/kg.
As for `N#CCCNC(=O)CCl`, the LD50 was 410 mg/kg.
On to `CCOC1Oc2ccc(OS(C)(=O)=O)cc2C1(C)C` (centres undefined), for which the LD50 was 1130 mg/kg.
Consider `O=C1CCc2cc(CCCN3CCN(c4ccccc4)CC3)ccc2N1`, for which the LD50 was 500 mg/kg.
For `C=CCOc1ccccc1C(=O)NC1CCCCC1`, the median lethal dose (LD50) was 1200 mg/kg.
Take `CN1CCN(CC/C=C2/c3ccccc3Sc3ccc(S(=O)(=O)N(C)C)cc32)CC1`: the LD50 was 410 mg/kg.
Take `CC(Cc1ccccc1)NN` (centres undefined): the LD50 is 34 mg/kg.
Consider `COc1ccc(Oc2ccc(NC(=O)N(C)C)cc2)cc1`, for which the LD50 was 1000 mg/kg.
As to `CCCCCCCCCCCCCC[N+](C)(C)C`, the LD50 was 3900 mg/kg.
For `CCc1nc(N)nc(N)c1-c1ccc(Cl)cc1`, the LD50 is 440 mg/kg.
As to `CCOC(=O)c1c(C)cc2nc(COC(=O)NC)n(-c3ccccc3Cl)c(=O)c2c1C`, the LD50 is 2500 mg/kg.
Regarding `C=CCC1(C(C)CC)C(=O)NC(=O)NC1=O` (centres undefined), the LD50 is 57.5 mg/kg.
Turning to `C1=CC(c2ccc(C3CC=CCC3)cc2)CCC1` (centres undefined), the LD50 is 17500 mg/kg.
As to `CC(C)Cc1ccc(C(C)C(=O)OCCN2CCN(c3cccc(Cl)c3)CC2)cc1` (centres undefined), the LD50 was 3350 mg/kg.
In the case of `CCC1(CCC(C)C)C(=O)N=C(O)NC1=O` (centres undefined), the LD50 is 275 mg/kg.
Regarding `CC(C)CNC(=O)NS(=O)(=O)c1ccc(Cl)cc1`, the LD50 is 1100 mg/kg.
As to `CCOP(=O)(OCC)SCCS(=O)(=O)CC`, the LD50 is 1.9 mg/kg.
With `COP(=O)(OC)O/C(=C\Cl)c1ccc(Cl)cc1Cl`, the LD50 is 97.5 mg/kg.
As to `O=[N+]([O-])C(Br)Br`, the LD50 is 86 mg/kg.
For `Cc1cc(C)c(C(=O)Cl)c(C)c1`, the LD50 was 2300 mg/kg.
Regarding `CCc1c(C)[nH]c2c1C(=O)C(CN1CCC3(CC1)OCCO3)CC2` (centres undefined), the LD50 was 240 mg/kg.
For `CC1(C)CC(=O)C(N)C(C)(C)N1` (centres undefined), the LD50 was 920 mg/kg.
Take `C=CC(C)=CCCC(C)(C)O`: the LD50 was 1700 mg/kg.
With `CC(C)(C)c1cc(C(=O)O)cc(C(C)(C)C)c1O`, the LD50 is 1410 mg/kg.
In the case of `CC(C)(C)OC(=O)N1CC(=O)C1`, the LD50 was 2500 mg/kg.
`N#CCCNc1ccccc1`: the LD50 was 4700 mg/kg.
For the molecule `CC(C)NCC(O)c1ccc2ccccc2c1` (centres undefined), the LD50 is 900 mg/kg.
In the case of `CC[C@H]1C[C@H]2[C@@H]3CCC4=CC(=O)CC[C@@H]4[C@H]3CC[C@]2(C)[C@H]1O`, the LD50 is 12100 mg/kg.
In the case of `CCN(N=O)C(C)OC` (centres undefined), the LD50 is 1000 mg/kg.
Consider `COc1cccc(N)c1`, for which the LD50 is 526 mg/kg.
In the case of `CSCCC(OC(C)=O)C(=O)O` (centres undefined), the LD50 is 2340 mg/kg.
For the molecule `CCCN(CCC)c1c([N+](=O)[O-])cc(C(F)(F)F)c(N)c1[N+](=O)[O-]`, the LD50 was 15400 mg/kg.
As for `CCC(=O)C(CC(C)N(C)C)(c1ccccc1)c1ccccc1` (centres undefined), the LD50 was 86 mg/kg.
`CCOP(=O)(OCC)OC(=C(Cl)Br)c1ccc(Cl)cc1Cl`: the LD50 was 19.3 mg/kg.
Consider `O=[N+]([O-])c1cc([N+](=O)[O-])c(F)cc1F`, for which the LD50 was 50 mg/kg.
With `Cc1cc(C)cc(Cc2ccccc2)c1`, the LD50 was 2330 mg/kg.
In the case of `C=CCOC(=O)CC(SP(=S)(OC)OC)C(=O)OCC(C)SP(=S)(OC)OC` (centres undefined), the LD50 is 762 mg/kg.
Consider `O=C1C2C3C=C(C(O)(c4ccccc4)c4ccccn4)C(C3=C(c3ccccc3)c3ccccn3)C2C(=O)N1Cc1ccccn1` (centres undefined), for which the LD50 is 5.2 mg/kg.
Regarding `CN(C1CCCCC1)C1CCCCC1`, the LD50 was 446 mg/kg.
`CCNc1cccc(C)c1`: the LD50 is 580 mg/kg.
As to `CN(C)CCNN`, the LD50 is 2110 mg/kg.
For `Cc1ccc(C)c([N+](=O)[O-])c1`, the LD50 was 2440 mg/kg.
In the case of `O=C1c2ccccc2C(=O)N1CCc1ccccn1`, the LD50 is 860 mg/kg.
With `Cc1cccc(C)c1CCNC(N)=O`, the LD50 was 1500 mg/kg.
Turning to `O=S(=O)(O)c1ccc2c(Cc3cccc4cc(S(=O)(=O)O)ccc34)cccc2c1`, the LD50 is 3800 mg/kg.
Regarding `Cc1cc(N(C)C)nc(Cl)n1`, the LD50 was 1.25 mg/kg.
`CCCc1c(OCc2cccn3c(=O)c(CC(=O)O)cnc23)ccc(C(C)=O)c1O`: the LD50 was 4000 mg/kg.
With `Nc1ccc(O)c2c1C(=O)c1c(O)cc(-c3ccc(O)cc3)c(N)c1C2=O`, the LD50 was 6380 mg/kg.
As for `CN(C)C(=S)SCN1CCOCC1`, the LD50 was 1500 mg/kg.
Consider `CC(C)N(C(=O)SCC(Cl)=CCl)C(C)C`, for which the LD50 was 395 mg/kg.
On to `COc1ccc2c(c1)c(CC(=O)OC/C=C(\C)CC/C=C(\C)CCC=C(C)C)c(C)n2C(=O)c1ccc(Cl)cc1`, for which the LD50 was 1680 mg/kg.
Turning to `C=C(C)C(=O)OCCC[Si](OC)(OC)OC`, the LD50 is 23500 mg/kg.
Consider `CCCCCCCCCC(=O)OCCN1CCN(CCCN2c3ccccc3Sc3ccc(C(F)(F)F)cc32)CC1`, for which the LD50 was 19 mg/kg.
Regarding `C1CN(SSSSN2CCOCC2)CCO1`, the LD50 was 4800 mg/kg.
For `O=C1C2=C(CCCC2)C(=O)N1c1ccc(Cl)cc1`, the LD50 is 24000 mg/kg.
As to `CC1CNC(C)CN1` (centres undefined), the LD50 was 3160 mg/kg.
`O=C(CO)c1coc(=O)c2c(O)cccc12`: the LD50 is 250 mg/kg.
Take `NCc1cc(O)no1`: the LD50 was 45 mg/kg.
Regarding `O=C(OC(=O)C(Cl)Cl)C(Cl)Cl`, the LD50 is 2820 mg/kg.
Turning to `BrCC(Br)C1CCC(Br)C(Br)C1` (centres undefined), the LD50 is 3220 mg/kg.
On to `C#CCc1ccc(COC(=O)C2C(C=C(C)C)C2(C)C)o1` (centres undefined), for which the LD50 is 10000 mg/kg.
In the case of `O=C(O)CCSCCC(=O)O`, the LD50 was 3000 mg/kg.
As for `CCC(O)C(c1ccccc1)N1CCN(CCOc2ccccc2C)CC1` (centres undefined), the LD50 was 700 mg/kg.
`COc1cccc(C(=O)CCN[C@@H](C)[C@H](O)c2ccccc2)c1`: the LD50 was 500 mg/kg.
As to `Cc1ccc2c(-c3ccccc3)nc(=O)n(C(C)C)c2c1`, the LD50 is 759 mg/kg.
For `NC(C(=O)O)c1ccccc1` (centres undefined), the LD50 is 3030 mg/kg.
Take `CCOP(=O)(SC(C)CC)N1CCSC1=O` (centres undefined): the LD50 is 57 mg/kg.
For the molecule `O=C(O)C(Cl)CCl` (centres undefined), the LD50 is 289 mg/kg.
As to `COc1ccccc1N1CCN(CCCc2ccc3c(c2)CCC(=O)N3)CC1`, the LD50 is 500 mg/kg.
As to `CCCN(CCC)CCc1cccc2c1CC(=O)N2`, the LD50 is 396 mg/kg and 862 mg/kg.
Take `CCC(C)C(C(=O)OC1CC[N+](C)(C)CC1)c1ccccc1` (centres undefined): the LD50 was 720 mg/kg.
